From patent publication EP4781993A1, “ANTIBACTERIAL COMPOSITION AND ANTIBACTERIAL DRUG” (Shenzhen China Resources Gosun Pharmaceuticals Co., Ltd., priority 2023, dated 2025)
Structures can show the parent of a compound that is named as a salt. Where two headings read alike, the source gives them in different places.

What was measured:
[1] = tested on: OXA-232 producing Klebsiella pneumoniae; test: Broth-microdilution MIC (CLSI M07-A11) against clinical isolates; format: cell-based; design: Drug concentration: unit: mg/L; details: for MIC50 / MIC90: Klebsiella pneumoniae; for Mode: mode of MIC; for Drug concentration: unit not given in Table 3; for antibacterial activity: verdict in words
Source text: (§1) As recommended by CLSI (Clinical and Laboratory Standards Institute) M07-A11 (2018 edition), the Broth-microdilution method is adopted to determine the minimum inhibitory concentration (MIC) of ceftobiprole and zidebactam against clinical isolates. It should be noted that, in the present disclosure, MIC50 refers to the minimum drug concentration that inhibits the growth of 50% of the tested bacteria, and MIC90 refers to the minimum drug concentration that inhibits the growth of 90% of the tested bacteria.
(§2) Antibacterial drug: ceftobiprole, manufacturer: Shenyang Sanjiu Pharmaceutical, content: 92.1%, batch number: YF/BALP141/000. Zidebactam, manufacturer: Target M01 company, batch number: 149661. Zidebactam, as described above, the English name is Zidebactam, and the chemical name is: (2S,5R)-7-oxo-2-(2-((R)-piperidine-3-carbonyl)hydrazine-1-carbonyl)-1,6-diazabicyclo[3.2.1]octan-6-yl hydrogen sulfate.
(§3) Tested strains: a total of 24 genotypic strains producing KPC or OXA β-lactamase. Specifically, the tested strains include 24 strains of Klebsiella pneumoniae, including 12 KPC-2 producing strains and 12 OXA-232 producing strains.
(§4) Quality control strains: Escherichia coli ATCC 25922, (KPC-2 producing) Klebsiella pneumoniae ATCC BAA-1705, and (NDM-1 producing) Klebsiella pneumoniae ATCC BAA-2146.
(§5) Medium: cation-adjusted Mueller-Hinton broth (CAMHB), a product of BBL Company, USA.
(§6) Inoculum size: Pure isolated colonies were adjusted with normal saline to 0.5 McFarland turbidity. After appropriate dilution, the suspension was added to the wells of a 96-well U-bottom microplate (containing 50 µL antibacterial drug solution). The inoculum size was 5 × 10^5 CFU/mL.
(§7) Culture conditions: air environment, 35°C ± 2°C, 16 to 20 hours.
(§8) Preparation of Antibacterial Drug Solution : Ceftobiprole and zidebactam were taken separately, dissolution and dilution were performed according to the antibacterial drug reference to the CLSI standards and the drug package insert, A1 to A6, a total of 6 groups of antibacterial drug solutions, were prepared, among which, group A1 was the control group containing solely the single agent ceftobiprole, and group A2 was the control group containing solely the single agent zidebactam. Different antibacterial drug solutions with ceftobiprole concentrations ranging from 128 mg/L to 0.06 mg/L were respectively included in groups A1 and A3 to A6, and different antibacterial drug solutions with zidebactam concentrations ranging from 128 mg/L to 0.06 mg/L were included in group A2. The specific concentrations within the range of 128 mg/L to 0.06 mg/L in groups A1 to A6 were respectively 128 mg/L, 64 mg/L, 32 mg/L, 16 mg/L, 8 mg/L, 4 mg/L, 2 mg/L, 1 mg/L, 0.5 mg/L, 0.25 mg/L, 0.125 mg/L, or 0.06 mg/L, respectively. Table 1. Concentrations of ceftobiprole/zidebactam contained in the antibacterial drug solutions of groups A1 to A6
(§9) Experimental results: Currently, there are no established CLSI or EUCAST breakpoints for ceftobiprole/β-lactamase inhibitor. Therefore, the antibacterial activity of ceftobiprole/β-lactamase inhibitor is evaluated in accordance with the standards for ceftobiprole. WHONET 5.6 software is used to perform statistical analysis on the results of antibacterial susceptibility test. The fractional inhibitory concentration index (FIC) for the combination of ceftobiprole and zidebactam is calculated according to Equation (1). FIC index = (MIC of drug A in combination)/(MIC of drug A alone) + (MIC of drug B in combination)/(MIC of drug B alone) [formula]
(§10) In Equation (1), drug A is ceftobiprole, and drug B is zidebactam. […] Table 2. In vitro antibacterial activity of ceftobiprole/zidebactam against the tested bacteria in Example 1 […]

[2] = tested on: KPC-2 producing Klebsiella pneumoniae; test: as above; format: cell-based; design: Drug concentration: unit: mg/L; details: for Mode: mode of MIC; for Drug concentration: unit not given in Table 3; for antibacterial activity: verdict in words
Source text: as §1, §2, §3, §4, §5, §6, §7, §8, §9, §10

[3] = 12 strains, MIC = ceftobiprole concentration (groups A2, B2, C2, D2, E2: inhibitor alone)
[4] = strain 20-W4-001 (kpn, OXA-232)
[5] = strain 20-W4-002 (kpn, OXA-232)
[6] = strain 20-W4-003 (kpn, OXA-232)
[7] = strain 20-W4-004 (kpn, OXA-232)
[8] = strain 20-W4-005 (kpn, OXA-232)
[9] = strain 20-W4-007 (kpn, OXA-232)
[10] = strain 20-W4-008 (kpn, OXA-232)
[11] = strain 20-W4-009 (kpn, OXA-232)
[12] = strain 20-W4-010 (kpn, OXA-232)
[13] = strain 20-W4-011 (kpn, OXA-232)
[14] = strain 20-W4-012 (kpn, OXA-232)
[15] = strain 20-W4-013 (kpn, OXA-232)
[16] = 12 strains, MIC = ceftobiprole concentration (groups A2, B2, C2, D2, E2: inhibitor alone), listed as Group Al
[17] = Klebsiella pneumoniae, 12 strains, MIC = ceftobiprole concentration (groups A2, B2, C2, D2, E2: inhibitor alone), read-out: MIC50
[18] = Klebsiella pneumoniae, 12 strains, MIC = ceftobiprole concentration (groups A2, B2, C2, D2, E2: inhibitor alone), read-out: MIC90

Nc1nc(/C(=N/O)C(=O)N[C@@H]2C(=O)N3C(C(=O)O)=C(/C=C4\CCN([C@@H]5CCNC5)C4=O)CS[C@H]23)ns1 [Group A1, (6R,7R)-7-((Z)-2-(5-amino-1,2,4-thiadiazol-3-yl)-2-(hydroxyimino)acetamido)-8-oxo-3-((E)-((R)-2-oxo-[1,3'-bipyrrolidin]-3-ylidene)methyl)-5-thia-1-azabicyclo[4.2.0]oct-2-ene-2-carboxylic acid]
≥ 128 µg/mL: MIC50 [1, 3] | MIC90 [1, 3] | MIC50 [2, 17] | MIC90 [2, 18]
100%: Cumulative inhibition rate (%) ([1]; MIC >128 mg/L) | Cumulative inhibition rate (%) ([2]; MIC >128 mg/L)
no antibacterial activity: antibacterial activity [1] | antibacterial activity [2]
>128: Drug concentration [1, 4] | Drug concentration [1, 5] | Drug concentration [1, 6] | Drug concentration [1, 7] | Drug concentration [1, 8] | Drug concentration [1, 9] | Drug concentration [1, 10] | Drug concentration [1, 11] | Drug concentration [1, 12] | Drug concentration [1, 13] | Drug concentration [1, 14] | Drug concentration [1, 15] | Drug concentration ([2]; strain 18-W09-043 (kpn, KPC-2)) | Drug concentration ([2]; strain 18-W09-045 (kpn, KPC-2)) | Drug concentration ([2]; strain 18-W09-046 (kpn, KPC-2)) | Drug concentration ([2]; strain 18-W09-047 (kpn, KPC-2)) | Drug concentration ([2]; strain 18-W09-049 (kpn, KPC-2)) | Drug concentration ([2]; strain 18-W09-050 (kpn, KPC-2)) | Drug concentration ([2]; strain 18-W09-051 (kpn, KPC-2)) | Drug concentration ([2]; strain 18-W13-043 (kpn, KPC-2)) | Drug concentration ([2]; strain 18-W13-044 (kpn, KPC-2)) | Drug concentration ([2]; strain 18-W13-045 (kpn, KPC-2)) | Drug concentration ([2]; strain 18-W13-046 (kpn, KPC-2)) | Drug concentration ([2]; strain 18-W13-047 (kpn, KPC-2))
>128 µg/mL: MIC range [1, 3] | MIC range [2, 3] | MIC50 [2, 16] | MIC90 [2, 16]
12: Cumulative number of strains ([1]; MIC >128 mg/L) | Number of strains ([1]; MIC >128 mg/L) | Cumulative number of strains ([2]; MIC >128 mg/L) | Number of strains ([2]; MIC >128 mg/L)
>128 mg/L: Mode ([1]; 12 strains) | Mode ([2]; 12 strains)

O=C(NNC(=O)[C@@H]1CC[C@@H]2CN1C(=O)N2OS(=O)(=O)O)[C@@H]1CCCNC1 [Group A2, (2S,5R)-7-oxo-2-(2-((R)-piperidine-3-carbonyl)hydrazine-1-carbonyl)-1,6-diazabicyclo[3.2.1]octan-6-yl hydrogen sulfate]
66.7%: Cumulative inhibition rate (%) ([1]; MIC 128 mg/L)
33.3%: Cumulative inhibition rate (%) ([1]; MIC 4 mg/L)
5: Cumulative number of strains ([1]; MIC 8 mg/L) | Cumulative number of strains ([2]; MIC 128 mg/L)
>128 mg/L: Mode ([1]; 12 strains) | Mode ([2]; 12 strains)
7: Number of strains ([2]; MIC >128 mg/L)
6: Cumulative number of strains ([1]; MIC 64 mg/L)
64: Drug concentration [1, 10]
16.7%: Cumulative inhibition rate (%) ([1]; MIC 2 mg/L)
>128: Drug concentration [1, 4] | Drug concentration [1, 5] | Drug concentration [1, 7] | Drug concentration [1, 14] | Drug concentration ([2]; strain 18-W09-043 (kpn, KPC-2)) | Drug concentration ([2]; strain 18-W09-045 (kpn, KPC-2)) | Drug concentration ([2]; strain 18-W09-049 (kpn, KPC-2)) | Drug concentration ([2]; strain 18-W09-051 (kpn, KPC-2)) | Drug concentration ([2]; strain 18-W13-043 (kpn, KPC-2)) | Drug concentration ([2]; strain 18-W13-044 (kpn, KPC-2)) | Drug concentration ([2]; strain 18-W13-046 (kpn, KPC-2))
100%: Cumulative inhibition rate (%) ([1]; MIC >128 mg/L) | Cumulative inhibition rate (%) ([2]; MIC >128 mg/L)
2: Cumulative number of strains ([1]; MIC 2 mg/L) | Number of strains ([1]; MIC 4 mg/L) | Number of strains ([1]; MIC 128 mg/L) | Drug concentration [1, 9]
50%: Cumulative inhibition rate (%) ([1]; MIC 64 mg/L)
1: Cumulative number of strains ([1]; MIC 1 mg/L) | Number of strains ([1]; MIC 1 mg/L) | Number of strains ([1]; MIC 2 mg/L) | Number of strains ([1]; MIC 8 mg/L) | Number of strains ([1]; MIC 64 mg/L) | Drug concentration [1, 12] | Cumulative number of strains ([2]; MIC 1 mg/L) | Number of strains ([2]; MIC 1 mg/L) | Drug concentration ([2]; strain 18-W13-047 (kpn, KPC-2))
8: Cumulative number of strains ([1]; MIC 128 mg/L) | Drug concentration [1, 13]
128: Drug concentration [1, 8] | Drug concentration [1, 11] | Drug concentration ([2]; strain 18-W09-046 (kpn, KPC-2)) | Drug concentration ([2]; strain 18-W09-047 (kpn, KPC-2)) | Drug concentration ([2]; strain 18-W09-050 (kpn, KPC-2)) | Drug concentration ([2]; strain 18-W13-045 (kpn, KPC-2))
> 128 µg/mL: MIC90 [1, 3] | MIC50 [2, 17] | MIC90 [2, 18]
64 µg/mL: MIC50 [1, 3]
8.3%: Cumulative inhibition rate (%) ([1]; MIC 1 mg/L) | Cumulative inhibition rate (%) ([2]; MIC 1 mg/L)
41.7%: Cumulative inhibition rate (%) ([1]; MIC 8 mg/L) | Cumulative inhibition rate (%) ([2]; MIC 128 mg/L)
12: Cumulative number of strains ([1]; MIC >128 mg/L) | Cumulative number of strains ([2]; MIC >128 mg/L)
4: Cumulative number of strains ([1]; MIC 4 mg/L) | Number of strains ([1]; MIC >128 mg/L) | Drug concentration [1, 6] | Drug concentration [1, 15] | Number of strains ([2]; MIC 128 mg/L)

O=C(NC1CCNCC1)[C@@H]1CC[C@@H]2CN1C(=O)N2OS(=O)(=O)O [Group C2, (1R,2S,5R)-7-oxo-2-(piperidin-4-ylcarbamoyl)-1,6-diazabicyclo[3.2.1]octan-6-yl hydrogen sulfate]
7: Number of strains ([1]; MIC >128 mg/L)
25%: Cumulative inhibition rate (%) ([2]; MIC 128 mg/L)
12: Cumulative number of strains ([1]; MIC >128 mg/L) | Cumulative number of strains ([2]; MIC >128 mg/L)
100%: Cumulative inhibition rate (%) ([1]; MIC >128 mg/L) | Cumulative inhibition rate (%) ([2]; MIC >128 mg/L)
41.7%: Cumulative inhibition rate (%) ([1]; MIC 128 mg/L)
9: Number of strains ([2]; MIC >128 mg/L)
>128 mg/L: Mode ([1]; 12 strains) | Mode ([2]; 12 strains)
3: Cumulative number of strains ([2]; MIC 128 mg/L) | Number of strains ([2]; MIC 128 mg/L)
no antibacterial activity: antibacterial activity [1] | antibacterial activity [2]
> 128 µg/mL: MIC50 [1, 3] | MIC90 [1, 3] | MIC50 [2, 17] | MIC90 [2, 18]
5: Cumulative number of strains ([1]; MIC 128 mg/L) | Number of strains ([1]; MIC 128 mg/L)
